In patent US20240254118A1, “PRMT5 INHIBITORS AND USES THEREOF” (Gilead Sciences, Inc., priority 2022, published 2024):

Columns and labels:
[1] = system: SDMA signal (PRMT5 inhibition) in HCT116 MTAP-deleted cells; experiment: Symmetric di-methyl arginine image-based high content screen assay (SDMA assay), HCT116 MTAP-deleted; type: cell-based; conditions: SDMA assay; for EC50: Homo sapiens, HCT-116, 72 h, 3 days of treatment, cell line not given, taken as HCT116 MTAP-deleted, read-out: EC50 (SDMA assay)
How it was run: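 HCT116 MTAP-deleted cells treated with compound until Day 3, then formalin-fixed, permeabilized and immunostained for SDMA, with DAPI nuclear counterstain. Imaged by high-content microscopy; SDMA read-out is mean Alexa 488 intensity per DAPI-defined cell, reflecting PRMT5 inhibition.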

[2] = system: HCT116 MTAP-deleted cells; experiment: Cell viability assay (CellTiter-Glo, 7 days), HCT116 MTAP-deleted; conditions: Homo sapiens, HCT-116, 168 h
[3] = taken as HCT116 WT versus MTAP-deleted
[4] = taken as HCT116 WT vs MTAP-deleted

| EC50 [1] | EC50 selectivity (SDMA assay) [1, 3] | EC50 selectivity (SDMA assay) [1, 4] | Compound | CC50 [2] |
| --- | --- | --- | --- | --- |
| 1 to 5 nM | 446 | – | CN(C(=O)C1CC1)N(Cc1ncc(Cl)cc1F)C(=O)c1ccc2nc(N)c3cnn(C)c3c2c1 [Example 360, 4-amino-N-((5-chloro-3-fluoropyridin-2-yl)methyl)-N′-(cyclopropanecarbonyl)-N′,1-dimethyl-1H-pyrazolo[4,3-c]quinoline-8-carbohydrazide] | < 100 nM |
| < 1 nM | 34 | – | CN(c1ccsn1)N(Cc1ccc(C(F)(F)F)cn1)C(=O)c1ccc2nc(N)c3cnn(C)c3c2c1 [Example 361] | < 100 nM |
| 1 to 5 nM | 468 | – | Cn1ncc2c(N)nc3ccc(C(=O)N(Cc4ccc(C(F)(F)F)cn4)N4C(=O)O[C@H]5CC[C@H]54)cc3c21 [Example 362, 4-amino-1-methyl-N-((1S,5R)-3-oxo-2-oxa-4-azabicyclo[3.2.0]heptan-4-yl)-N-((5-(trifluoromethyl)pyridin-2-yl)methyl)-1H-pyrazolo[4,3-c]quinoline-8-carboxamide] | < 100 nM |
| 1 to 5 nM | 233 | – | Cn1ncc2c(N)nc3ccc(C(=O)N(Cc4ccc(F)cc4F)N4CCOCC4)cc3c21 [Example 365, 4-amino-N-(2,4-difluorobenzyl)-1-methyl-N-morpholino-1H-pyrazolo[4,3-c]quinoline-8-carboxamide] | 100 to 1000 nM |
| 1 to 5 nM | 125 | – | CN(C(=O)C1CC1)N(Cc1ccc(-c2cnn(C(F)(F)F)c2)cc1)C(=O)c1ccc2nc(N)c3cnn(C)c3c2c1 [Example 374, 4-amino-N′-(cyclopropanecarbonyl)-N′,1-dimethyl-N-[[4-[1-(trifluoromethyl)pyrazol-4-yl]phenyl]methyl]pyrazolo[4,3-c]quinoline-8-carbohydrazide] | < 100 nM |
| 1 to 5 nM | 141 | – | CC(=O)N(C)N(Cc1ccc(-c2cnn(C(F)(F)F)c2)cc1)C(=O)c1ccc2nc(N)c3cnn(C)c3c2c1 [Example 375, N′-acetyl-4-amino-N′,1-dimethyl-N-[[4-[1-(trifluoromethyl)pyrazol-4-yl]phenyl]methyl]pyrazolo[4,3-c]quinoline-8-carbohydrazide] | < 100 nM |
| 1 to 5 nM | 164 | – | CN(C(=O)C1CC1)N(Cc1ccc(-c2cnn(C(F)(F)F)c2)cc1Cl)C(=O)c1ccc2nc(N)c3cnn(C)c3c2c1 [Example 376, 4-amino-N-[[2-chloro-4-[1-(trifluoromethyl)pyrazol-4-yl]phenyl]methyl]-N′-(cyclopropanecarbonyl)-N′,1-dimethyl-pyrazolo[4,3-c]quinoline-8-carbohydrazide] | < 100 nM |
| 1 to 5 nM | 167 | – | CN1CCN(N(Cc2ccc(C(F)(F)F)cn2)C(=O)c2ccc3nc(N)c4cnn(C)c4c3c2)C(=O)C1 [Example 382, 4-amino-1-methyl-N-(4-methyl-2-oxo-piperazin-1-yl)-N-[[5-(trifluoromethyl)-2-pyridyl]methyl]pyrazolo[4,3-c]quinoline-8-carboxamide] | < 100 nM |
| 1 to 5 nM | 168 | – | CN1CCN(N(Cc2ccc(C(F)(F)F)cn2)C(=O)c2cc3c(cc2F)nc(N)c2cnn(C)c23)C(=O)C1 [Example 383, 4-amino-7-fluoro-1-methyl-N-(4-methyl-2-oxo-piperazin-1-yl)-N-[[5-(trifluoromethyl)-2-pyridyl]methyl]pyrazolo[4,3-c]quinoline-8-carboxamide] | < 100 nM |
| 1 to 5 nM | 283 | – | CC(=O)N1CCN(N(Cc2ccc(C(F)(F)F)cn2)C(=O)c2ccc3nc(N)c4cnn(C)c4c3c2)CC1 [Example 384, N-(4-acetylpiperazin-1-yl)-4-amino-1-methyl-N-[[5-(trifluoromethyl)-2-pyridyl]methyl]pyrazolo[4,3-c]quinoline-8-carboxamide] | 100 to 1000 nM |
| 1 to 5 nM | 52 | – | COCC(=O)N(C)N(Cc1ccc(C(F)(F)F)cn1)C(=O)c1ccc2nc(N)c3cnn(C)c3c2c1 [Example 385, 4-amino-N′-(2-methoxyacetyl)-N′,1-dimethyl-N-[[5-(trifluoromethyl)-2-pyridyl]methyl]pyrazolo[4,3-c]quinoline-8-carbohydrazide] | < 100 nM |
| 1 to 5 nM | 20 | – | COCC(=O)N(C)N(Cc1ccc(C(F)(F)F)cn1)C(=O)c1cc2c(cc1F)nc(N)c1cnn(C)c12 [Example 386, 4-amino-7-fluoro-N′-(2-methoxyacetyl)-N′,1-dimethyl-N-[[5-(trifluoromethyl)-2-pyridyl]methyl]pyrazolo[4,3-c]quinoline-8-carbohydrazide] | < 100 nM |
| 1 to 5 nM | 44 | – | CC(=O)N(C)N(Cc1ccc(C#CC2CCCO2)cc1F)C(=O)c1ccc2nc(N)c3cnn(C)c3c2c1 (stereo not drawn) [Example 387, N′-acetyl-4-amino-N-[[2-fluoro-4-(2-tetrahydrofuran-2-ylethynyl)phenyl]methyl]-N′,1-dimethyl-pyrazolo[4,3-c]quinoline-8-carbohydrazide] | < 100 nM |
| < 1 nM | 40 | – | CC(=O)N(C)N(Cc1ccc(C#CC2CCOC2)cc1F)C(=O)c1ccc2nc(N)c3cnn(C)c3c2c1 (stereo not drawn) [Example 388, N′-acetyl-4-amino-N-[[2-fluoro-4-(2-tetrahydrofuran-3-ylethynyl)phenyl]methyl]-N′,1-dimethyl-pyrazolo[4,3-c]quinoline-8-carbohydrazide] | < 100 nM |
| 1 to 5 nM | 31 | – | CC(=O)N(C)N(Cc1ccc(C#CC(C)(C)O)cc1F)C(=O)c1ccc2nc(N)c3cnn(C)c3c2c1 [Example 389, N′-acetyl-4-amino-N-[[2-fluoro-4-(3-hydroxy-3-methyl-but-1-ynyl)phenyl]methyl]-N′,1-dimethyl-pyrazolo[4,3-c]quinoline-8-carbohydrazide] | < 100 nM |
| 1 to 5 nM | 27 | – | CC(=O)N(C)N(Cc1ccc(C#CC23CC(C2)C3)cc1F)C(=O)c1ccc2nc(N)c3cnn(C)c3c2c1 [Example 390, N′-acetyl-4-amino-N-[[4-[2-(1-bicyclo[1.1.1]pentanyl)ethynyl]-2-fluoro-phenyl]methyl]-N′,1-dimethyl-pyrazolo[4,3-c]quinoline-8-carbohydrazide] | < 100 nM |
| 1 to 5 nM | 64 | – | CN(C(=O)C1CC1)N(Cc1ccc(C#CC2CCCO2)cc1F)C(=O)c1ccc2nc(N)c3cnn(C)c3c2c1 (stereo not drawn) [Example 391, 4-amino-N′-(cyclopropanecarbonyl)-N-(2-fluoro-4-((tetrahydrofuran-2-yl)ethynyl)benzyl)-N′,1-dimethyl-1H-pyrazolo[4,3-c]quinoline-8-carbohydrazide] | < 100 nM |
| 1 to 5 nM | 285 | – | Cn1ncc2c(N)nc3ccc(C(=O)N(Cc4ccc(C(F)(F)F)nc4)N4CCCC4=O)cc3c21 [Example 392, 4-amino-1-methyl-N-(2-oxopyrrolidin-1-yl)-N-[[6-(trifluoromethyl)-3-pyridyl]methyl]pyrazolo[4,3-c]quinoline-8-carboxamide] | < 100 nM |
| 1 to 5 nM | 380 | – | CN(C(=O)C1CC1)N(Cc1ccc(C(F)(F)F)nc1)C(=O)c1ccc2nc(N)c3cnn(C)c3c2c1 [Example 393, 4-amino-N′-(cyclopropanecarbonyl)-N′,1-dimethyl-N-[[6-(trifluoromethyl)-3-pyridyl]methyl]pyrazolo[4,3-c]quinoline-8-carbohydrazide] | < 100 nM |
| 1 to 5 nM | 33 | – | COCCN(C)N(Cc1ccc(C(F)(F)F)cc1F)C(=O)c1cc2c(cc1F)nc(N)c1cnn(C)c12 [Example 395, 4-amino-7-fluoro-N-(2-fluoro-4-(trifluoromethyl)benzyl)-N′-(2-methoxyethyl)-N′,1-dimethyl-1H-pyrazolo[4,3-c]quinoline-8-carbohydrazide] | < 100 nM |
| 1 to 5 nM | – | 135 | COCCN(C)N(Cc1ccc(C(F)(F)F)cc1F)C(=O)c1ccc2nc(N)c3cnn(C)c3c2c1 [Example 396, 4-amino-N-[[2-fluoro-4-(trifluoromethyl)phenyl]methyl]-N′-(2-methoxyethyl)-N′,1-dimethyl-pyrazolo[4,3-c]quinoline-8-carbohydrazide] | < 100 nM |
| 1 to 5 nM | – | 78 | Cn1ncc2c(N)nc3ccc(C(=O)N(Cc4ccc(C(F)(F)F)cc4F)N4CCOCC4)cc3c21 [Example 397, 4-amino-N-[[2-fluoro-4-(trifluoromethyl)phenyl]methyl]-1-methyl-N-morpholino-pyrazolo[4,3-c]quinoline-8-carboxamide] | < 100 nM |
| 1 to 5 nM | – | 31 | Cn1ncc2c(N)nc3cc(F)c(C(=O)N(Cc4ccc(C(F)(F)F)cc4F)N4CCOCC4)cc3c21 [Example 398, 4-amino-7-fluoro-N-[[2-fluoro-4-(trifluoromethyl)phenyl]methyl]-1-methyl-N-morpholino-pyrazolo[4,3-c]quinoline-8-carboxamide] | < 100 nM |
| 1 to 5 nM | – | 358 | CN(C(=O)CC1CC1)N(Cc1ccc(C(F)(F)F)cn1)C(=O)c1ccc2nc(N)c3cnn(C)c3c2c1 [Example 399, 4-amino-N′-(2-cyclopropylacetyl)-N′,1-dimethyl-N-[[5-(trifluoromethyl)-2-pyridyl]methyl]pyrazolo[4,3-c]quinoline-8-carbohydrazide] | < 100 nM |
